Measurements published in patent US20090053278A1, “ANTI-MICROBIAL COMPOSITIONS AND DEVICES AND METHODS OF USING THE SAME” (priority 2006, published 2009).
Values after ≈ are worked out from the molar mass of the structure shown. Where a SMILES comes first, the peptide text is derived from it.

Legend:
[1] = system: Staphylococcus epidermididis (RP62A; "Christensen Strain"); experiment: Planktonic MIC, MBEC device, 24 hour exposure; type: cell-based, Staphylococcus epidermidis; conditions: S. epidermidis, 10% MHB in PBS
From the text: (§1) The procedure provided describes an assay for testing 2 organisms (S. epidermidis and S. aureus) grown as a biofilm against 2 antimicrobial agents (gentamicin and an eCAP peptide) using a 96 well microtitre plate. The procedure will allow one to compare the MIC and MBEC values for each organism against each antimicrobial agent and against each other.
(§2) Microorganisms used were Staphylococcus epidermididis (RP62A; “Christensen Strain”) and Staphylococcus aureus (University of Calgary clinical isolate, strain 2645).
(§3) One set of test panels as shown above was prepared for each organism to determine the MIC and MBEC after a 24 hour exposure to each test material. SC wells are sterility controls for each experiment. GC is the growth control for each row. The working solution of gentamicin was 3 μmol/ml and 1 μmol/ml for eCAP. No SEM samples were taken for analysis due to test material shortage.
A working solution of eCAP or Gentamicin (1 μMoles/mL and 3 μMoles/mL respectively) was made in 10% MHB in sterile PBS. 200 μl of 10% MHB was added to ‘column’ 12 to serve as sterility controls (SC) and growth controls (GC) for each organism. 100 μl of 10% MHB was added to ‘columns’ 2 to 11. 200 μl of the appropriate working solution was added to ‘column’ 1 of the microtitre plate. 100 μl of the appropriate working solution was added to ‘column’ 2 and ‘column’ 3 of the microtitre plate. Using the multichannel micropipette, the contents of ‘column’ 3 was mixed by pipetting up and down. After mixing, 100 μl was transferred from the wells in ‘column’ 3 to the corresponding wells in ‘column’ 4. […]
Determination of Planktonic MIC: The challenge plate was incubated at 37° C. for 24 hours and read using a plate reader to determine MIC values. The MIC (minimum inhibitory concentration) was determined for compound eCAP/gentamicin for each organism shed from the biofilm during the challenge incubation. […]
(§4) Therefore, 10% MHB was used as a diluent instead of TSB. […] The MIC and MBEC values were determined as the dilution immediately before the concentration where growth was first observed, as depicted in Table 9 below.

Enterococcis faecalis = experiment: in-vitro assay of peptide-coated plastic endodontic obturators; type: cell-based; conditions: peptide immobilized on plastic obturators; data not shown
From the text: Medical standard plastic endodontic obturators were coated with an antimicrobial peptide. […] The obturators were coated with a tie layer. A parylene coating containing a reactive molecule specific for the N-terminus region of the peptide (“Photopolymer”) was then applied over the tie layer. The peptide WLBU-2 (SEQ ID NO. 179) was applied to the parylene coating and exposed to UV light to facilitate covalent bonding of the peptide with the parylene coating. Non-coated obturators were used as controls. All samples and controls were subjected to ethylene oxide sterilization. The coated samples were placed in 75% relative humidity overnight.

[2] = antimicrobial activity retained after sterilization
From the text: In a useful embodiment of the present invention, the antimicrobial peptides may retain antibacterial activity after a device coated with the antimicrobial peptide is sterilized.

[3] = system: Staphylococcus aureus (University of Calgary clinical isolate, strain 2645) grown as a biofilm; experiment: MBEC of biofilm, MBEC device, 24 hour exposure; type: cell-based; conditions: S. aureus biofilm, 10% MHB in PBS
From the text: as §1, §2, §3
A working solution of eCAP or Gentamicin (1 μMoles/mL and 3 μMoles/mL respectively) was made in 10% MHB in sterile PBS. 200 μl of 10% MHB was added to ‘column’ 12 to serve as sterility controls (SC) and growth controls (GC) for each organism. 100 μl of 10% MHB was added to ‘columns’ 2 to 11. 200 μl of the appropriate working solution was added to ‘column’ 1 of the microtitre plate. 100 μl of the appropriate working solution was added to ‘column’ 2 and ‘column’ 3 of the microtitre plate. Using the multichannel micropipette, the contents of ‘column’ 3 was mixed by pipetting up and down. After mixing, 100 μl was transferred from the wells in ‘column’ 3 to the corresponding wells in ‘column’ 4. This was repeated until reaching […]. Using a pipet, 100 μl from each well in ‘column’ 11 was ejected. 100 μl of growth media was then added to all wells except A1 to H1, A2 to H2, and A12 to H12.
Antimicrobial Challenge of Biofilm: Rinse plate(s) of saline (200 μL per well) were prepared. Planktonic cells from biofilm that had formed on the lid of the MBEC device were rinsed by dipping the lid into the saline for 1-2 minutes. The lid was transferred to the challenge plate and incubated at 37° C. for 24 hours on a gyrating platform set at approximately 150 rpm.
Recovery of Surviving Biofilm: Rinse plate(s) of 0.9% sterile saline (200 μL per well) were prepared in a sterile 96 well micro titre plate. Pegs were rinsed in 0.9% sterile saline for 1 to 2 minutes. […] The recovery plates were incubated at 37° C. for 24 hours and read using the plate ready to determine MBEC values.
as §4

[4] = system: Staphylococcus epidermididis (RP62A; "Christensen Strain") grown as a biofilm; experiment: MBEC of biofilm, MBEC device, 24 hour exposure; type: cell-based, Staphylococcus epidermidis; conditions: S. epidermidis biofilm, 10% MHB in PBS, listed as eCAP sterilized by ethylene oxide
From the text: as §1, §2
as §3, with “shortage. […]” for “shortage.”
Recovery of Surviving Biofilm: Rinse plate(s) of 0.9% sterile saline (200 μL per well) were prepared in a sterile 96 well micro titre plate. […] The recovery plates were incubated at 37° C. for 24 hours and read using the plate ready to determine MBEC values.
as §4

[5] = listed as eCAP sterilized by ethylene oxide

Molecule: CC(C)[C@H](NC(=O)[C@H](Cc1c[nH]c2ccccc12)NC(=O)[C@H](CCCNC(=N)N)NC(=O)[C@H](CCCNC(=N)N)NC(=O)[C@@H](NC(=O)[C@@H](NC(=O)[C@H](CCCNC(=N)N)NC(=O)[C@@H](NC(=O)[C@@H](NC(=O)[C@H](CCCNC(=N)N)NC(=O)[C@H](CCCNC(=N)N)NC(=O)[C@H](Cc1c[nH]c2ccccc12)NC(=O)[C@@H](NC(=O)[C@H](CCCNC(=N)N)NC(=O)[C@H](CCCNC(=N)N)NC(=O)[C@@H](NC(=O)[C@H](CCCNC(=N)N)NC(=O)[C@H](CCCNC(=N)N)NC(=O)[C@@H](NC(=O)[C@H](Cc1c[nH]c2ccccc12)NC(=O)[C@H](CCCNC(=N)N)NC(=O)[C@@H](N)CCCNC(=N)N)C(C)C)C(C)C)C(C)C)C(C)C)C(C)C)C(C)C)C(C)C)C(=O)N[C@@H](CCCNC(=N)N)C(=O)N[C@@H](CCCNC(=N)N)C(=O)O [WLBU-2, RRWVRRVRRVWRRVVRVVRRWVRR] (H-RRWVRRVRRVWRRVVRVVRRWVRR-OH; N-terminus and C-terminus assumed)
- MIC ([1]; listed as eCAP): 3.9 µM (≈ 13.3 µg/mL)
- efficacy against Enterococcis faecalis of immobilized peptide (Enterococcis faecalis): efficacy against Enterococcis faecalis
- effect of sterilization methods on antimicrobial activity ([2]; high and low dose gamma radiated and ethylene oxide, MIC/MBEC against S. aureus and S. epidermidis): not detrimental to its antimicrobial activity
- antimicrobial activity after ethylene oxide sterilization ([2]; peptide coated on a substrate): retained antimicrobial activity

Molecule: CC(C)[C@H](NC(=O)[C@H](Cc1c[nH]c2ccccc12)NC(=O)[C@H](CCCNC(=N)N)NC(=O)[C@H](CCCNC(=N)N)NC(=O)[C@@H](NC(=O)[C@@H](NC(=O)[C@H](CCCNC(=N)N)NC(=O)[C@@H](NC(=O)[C@@H](NC(=O)[C@H](CCCNC(=N)N)NC(=O)[C@H](CCCNC(=N)N)NC(=O)[C@H](Cc1c[nH]c2ccccc12)NC(=O)[C@@H](NC(=O)[C@H](CCCNC(=N)N)NC(=O)[C@H](CCCNC(=N)N)NC(=O)[C@@H](NC(=O)[C@H](CCCNC(=N)N)NC(=O)[C@H](CCCNC(=N)N)NC(=O)[C@@H](NC(=O)[C@H](Cc1c[nH]c2ccccc12)NC(=O)[C@H](CCCNC(=N)N)NC(=O)[C@@H](N)CCCNC(=N)N)C(C)C)C(C)C)C(C)C)C(C)C)C(C)C)C(C)C)C(C)C)C(=O)N[C@@H](CCCNC(=N)N)C(=O)N[C@@H](CCCNC(=N)N)C(=O)O [Ethylene oxide eCAP] (H-RRWVRRVRRVWRRVVRVVRRWVRR-OH; N-terminus and C-terminus assumed)
- MBEC [3, 5]: approximately 0.0039 μmol/ml
- MIC [1, 5]: 3.9 µM (≈ 13.3 µg/mL)
- MBEC [4]: 0.0078 µmol/mL

Molecule: Gentamicin [reference compound]
- MBEC [3]: 1.5 µmol/mL
- MIC [1]: 1500 µM

Molecule: CC(C)[C@H](NC(=O)[C@H](Cc1c[nH]c2ccccc12)NC(=O)[C@H](CCCNC(=N)N)NC(=O)[C@H](CCCNC(=N)N)NC(=O)[C@@H](NC(=O)[C@@H](NC(=O)[C@H](CCCNC(=N)N)NC(=O)[C@@H](NC(=O)[C@@H](NC(=O)[C@H](CCCNC(=N)N)NC(=O)[C@H](CCCNC(=N)N)NC(=O)[C@H](Cc1c[nH]c2ccccc12)NC(=O)[C@@H](NC(=O)[C@H](CCCNC(=N)N)NC(=O)[C@H](CCCNC(=N)N)NC(=O)[C@@H](NC(=O)[C@H](CCCNC(=N)N)NC(=O)[C@H](CCCNC(=N)N)NC(=O)[C@@H](NC(=O)[C@H](Cc1c[nH]c2ccccc12)NC(=O)[C@H](CCCNC(=N)N)NC(=O)[C@@H](N)CCCNC(=N)N)C(C)C)C(C)C)C(C)C)C(C)C)C(C)C)C(C)C)C(C)C)C(=O)N[C@@H](CCCNC(=N)N)C(=O)N[C@@H](CCCNC(=N)N)C(=O)O [High dose Irradiated eCAP] (H-RRWVRRVRRVWRRVVRVVRRWVRR-OH; N-terminus and C-terminus assumed)
- MBEC ([3]; listed as eCAP sterilized by high dose irradiation): approximately 0.016 μmol/ml

Molecule: CC(C)[C@H](NC(=O)[C@H](Cc1c[nH]c2ccccc12)NC(=O)[C@H](CCCNC(=N)N)NC(=O)[C@H](CCCNC(=N)N)NC(=O)[C@@H](NC(=O)[C@@H](NC(=O)[C@H](CCCNC(=N)N)NC(=O)[C@@H](NC(=O)[C@@H](NC(=O)[C@H](CCCNC(=N)N)NC(=O)[C@H](CCCNC(=N)N)NC(=O)[C@H](Cc1c[nH]c2ccccc12)NC(=O)[C@@H](NC(=O)[C@H](CCCNC(=N)N)NC(=O)[C@H](CCCNC(=N)N)NC(=O)[C@@H](NC(=O)[C@H](CCCNC(=N)N)NC(=O)[C@H](CCCNC(=N)N)NC(=O)[C@@H](NC(=O)[C@H](Cc1c[nH]c2ccccc12)NC(=O)[C@H](CCCNC(=N)N)NC(=O)[C@@H](N)CCCNC(=N)N)C(C)C)C(C)C)C(C)C)C(C)C)C(C)C)C(C)C)C(C)C)C(=O)N[C@@H](CCCNC(=N)N)C(=O)N[C@@H](CCCNC(=N)N)C(=O)O [Low dose irradiated eCAP] (H-RRWVRRVRRVWRRVVRVVRRWVRR-OH; N-terminus and C-terminus assumed)
- MBEC ([3]; listed as eCAP sterilized by low dose irradiation): approximately 0.063 μmol/ml
